Measurements: US20050090527A1, “Combination of H1, H3 and H4 receptor antagonists for treatment of allergic and non-allergic pulmonary inflammation, congestion and allergic rhinitis” (Schering Corporation, priority 2003, published 2005)
Where two headings read alike, the source gives them in different places.

Columns and labels:
[1] = target: T1, human H4 (H4-HEK293 cells) (Homo sapiens, UniProt Q9H3N8); assay: Membrane binding assay, [3H]-histamine, for H4 binding
T1 construct: expressed in transfected cells
Procedure: (§1) In the present example, the affinities of several compounds for the H1, H3 and H4 receptors was determined by a membrane binding assay.
(§2) Materials. Rat and guinea-pig brains were obtained frozen from Rockland Immunochemicals (Gilbertsville, Pa.). Cell lines expressing recombinant human receptors were generated by using standard transfection techniques. The following radioligands were obtained from Dupont NEN (Boston, Mass.): [^3H]-pyrilamine, 23 Ci/mmol, for H1 binding; [^3H]-N′-methylhistamine, 82 Ci/mmol, for H3 binding and [^3H]-histamine, 20 Ci/mmol, for H4 binding.
(§3) Methods. Recombinant cell lines (i.e., human H1-CHO cells, human H3-HEK293 and human H4-HEK293 cells) were cultured in Dulbecco's modified Eagle's medium/10% fetal bovine serum supplemented with 2 mM glutamine, penicillin (100 U/ml), and streptomycin (100 μg/ml) in a humidified 5% CO2 atmosphere at 37° C. Selection was maintained with 0.5 mg geneticin/ml. Cells were harvested for membrane preparation by aspirating media, replacing it with Hanks' balanced salt solution/5 mM EDTA, and incubating flasks for 10 minutes at 37° C. Cells were pelleted by centrifugation at 1000×g for ten minutes at 4° C.
(§4) Membrane preparation. Membranes were prepared by disrupting cells or tissue in at least ten volumes of ice-cold 50 mM Tris-HCl, pH 7.5 at 25° C., with a Polytron. homogenates were centrifuged ten minutes at 1000×g and the supernatants were then centrifuged for ten minutes at 50,000×g. Pellets from this centrifugation step were resuspended with a Polytron, a sample was taken for protein determination (BCA; Pierce; Rockford, Ill.), and the resuspension was again centrifuged at 50,000×g. Brain membranes were stored as pellets, cell membranes as suspensions of 1 mg protein/ml Tris buffer at −20° C.
(§5) Binding assays. […] Assay mixtures were incubated for 30 minutes at 30° C. in polypropylene, 96-well, deep-well plates then filtered through 0.3% polyethylenimine-soaked GF/B filters. These were washed three times with 1.2 ml of Tris buffer, dried in a microwave oven, impregnated with Meltilex wax scintillant and counted at 40% efficiency in a Betaplate scintillation counter (Wallac). IC50 values were determined by interpolation or by nonlinear, least-squares, curve-fitting with the Prism program (GraphPad Software). Ki values were determined in the manner of Cheng and Prusoff (Cheng, et al., (1973) Biochem. Pharm. 22:3099-3108).

[2] = target: T2, human histamine H4 receptor (SP9144) (Homo sapiens, UniProt Q9H3N8); assay: Competition binding versus [3H]-histamine on membranes of SP9144-transfected HEK293 cells
T2 construct: expressed in transfected cells; host or cells: HEK293
Procedure: Membrane preparation. Forty-eight hours after transfection with plasmid containing the sequence for SP9144, HEK293 cells were harvested from T150 flasks by incubating 5 minutes in 5 ml of 5 mM EDTA/Hanks' balanced salt solution followed by repeated pipeting. They were centrifuged 5 minutes at 1000×g. The EDTA/PBS was decanted and an equal volume of ice-cold 50 mM Tris-HCl, pH 7.5, was added and cells were broken up with a Polytron (PT10 tip, setting 5, 30 seconds). Nuclei and unbroken cells were sedimented at 1000×g for 10 minutes and then the supernatant was centrifuged at 50,000×g for 10 minutes. The supernatant was decanted, the pellet was resuspended by Polytron, a sample was taken for protein assay (bicinchoninic acid, Pierce; Rockford, Ill.), and the tissue was again centrifuged at 50,000×g. Pellets were stored frozen at −20° C.
Binding assay. […] Samples were filtered on GF/B filters and washed thrice with 2 ml of cold Tris buffer. Filters were dried in a microwave oven, impregnated with Meltilex wax scintillant, and counted at 45% efficiency.
Competition binding assays.
Curves were fit to the data with Prism (GraphPad Software) nonlinear least-squares curve-fitting program and Ki values were derived from IC50 values according to Cheng and Prusoff (Cheng, et al., (1973) Biochem. Pharm. 22:3099-3108).

[3] = target: T3, human H1 (H1-CHO cells) (Homo sapiens, UniProt P35367); assay: Membrane binding assay, [3H]-pyrilamine, for H1 binding; conditions: for H1 Ki, value given in %: concentration not given
T3 construct: expressed in transfected cells
Procedure: as §1, §2, §3, §4, §5

[4] = system: LPS-induced inflammatory response in rat airways; assay: BAL cells recovered from LPS-challenged rats (pulmonary inflammation); assay type: in vivo; conditions: for Cells (neutrophils or total cells) counted in BAL of LPS-challenged rats compared with rats treated with a blank: oral dosing five hours before LPS; for % Inhibition of neutrophilic cellular influx into BAL in response to LPS challenge / % Inhibition of total cellular influx into BAL in response to LPS challenge: 10 mg/kg orally five hours before intratracheal LPS
Procedure: Male Sprague-Dawley rats (250-300 g) were anesthetized by inhalation of isoflurane (flow rate 1 ml/min; supplemented with O2). Using a Penn-Centry microspray needle, 0.1 ml of a 100-μg/ml LPS solution in saline was injected into the trachea. Animals not challenged with the LPS solution received 0.1 ml of saline. Animals were placed on a heat pad until they recovered from anesthesia. Afterward, they were returned to their cages and allowed food and water ad libitum. All animals survived these manipulations and no additional interventions were required to ensure their survival. Animals fasted overnight were orally dosed with either the standard PD4 inhibitor and positive-control, SB207499 (c4-cyano-4-(3-cyclopentyloxy-4-methoxy-phenyl)-r-1-cyclohexanecarboxylic acid; Barnette, et al., (1998) J. Pharm. Exp. Ther. 284: 420-426), the compound of formula 17 or vehicle as a negative-control (0.4% methylcellulose) five hours before the LPS challenge.
At appropriate time points after intratracheal challenge with LPS, animals were surgically prepared with a tracheal cannula. Surgery was performed under anesthesia. The airways were flushed with 2×2 ml of 0.9% saline and the two washings pooled. Lavage fluid was centrifuged (350 g, 4° C., 7 minutes), supernatant aspirated, erythrocytes lysed, and pellet washed in phosphate-buffered saline containing 10% heat-inactivated fetal calf serum and 10 μg/ml DNase I. The cell suspension was centrifuged, supernatant aspirated, and pellet resuspended in the same buffer. Total cell counts were performed using a Nebauer hemacytometer. Differential cell counts were conducted on Cytospin-prepared slides stained with Fisher's Leukostat stain. At least 200 cells were assessed per slide and standard morphological criteria were used to define neutrophilic cells.
The total number of cells and the number of neutrophils in the broncheoalveolar lavage (BAL) recovered from rats treated with the compound of formula 17, SB207499 or a blank were counted and compared. Fewer cells (i.e., neutrophils or total cells) were counted in the BAL of LPS-challenged rats treated with the compound of formula 17 or with SB207499 than that of rats treated with a blank. […] The data from these experiments is set forth below in Tables 6 and 7.

[5] = target: T4, human H3 (H3-HEK293 cells) (Homo sapiens, UniProt Q9Y5N1); assay: Membrane binding assay, [3H]-N-methylhistamine, for H3 binding; conditions: concentration not given
T4 construct: expressed in transfected cells
Procedure: Materials. Rat and guinea-pig brains were obtained frozen from Rockland Immunochemicals (Gilbertsville, Pa.). Cell lines expressing recombinant human receptors were generated by using standard transfection techniques.
Methods. […] Selection was maintained with 0.5 mg geneticin/ml. Cells were harvested for membrane preparation by aspirating media, replacing it with Hanks' balanced salt solution/5 mM EDTA, and incubating flasks for 10 minutes at 37° C. Cells were pelleted by centrifugation at 1000×g for ten minutes at 4° C.
Membrane preparation. […] Pellets from this centrifugation step were resuspended with a Polytron, a sample was taken for protein determination (BCA; Pierce; Rockford, Ill.), and the resuspension was again centrifuged at 50,000×g. Brain membranes were stored as pellets, cell membranes as suspensions of 1 mg protein/ml Tris buffer at −20° C.
as §5, with “Software).” for “Software). Ki values were determined in the manner of Cheng and Prusoff (Cheng, et al., (1973) Biochem. Pharm. 22:3099-3108).”

[6] = membrane binding, [3H]-histamine, read-out: H4 Ki
[7] = 18 nM [3H]-histamine, cells printed in μM

T3 sequence (P35367 whole entry): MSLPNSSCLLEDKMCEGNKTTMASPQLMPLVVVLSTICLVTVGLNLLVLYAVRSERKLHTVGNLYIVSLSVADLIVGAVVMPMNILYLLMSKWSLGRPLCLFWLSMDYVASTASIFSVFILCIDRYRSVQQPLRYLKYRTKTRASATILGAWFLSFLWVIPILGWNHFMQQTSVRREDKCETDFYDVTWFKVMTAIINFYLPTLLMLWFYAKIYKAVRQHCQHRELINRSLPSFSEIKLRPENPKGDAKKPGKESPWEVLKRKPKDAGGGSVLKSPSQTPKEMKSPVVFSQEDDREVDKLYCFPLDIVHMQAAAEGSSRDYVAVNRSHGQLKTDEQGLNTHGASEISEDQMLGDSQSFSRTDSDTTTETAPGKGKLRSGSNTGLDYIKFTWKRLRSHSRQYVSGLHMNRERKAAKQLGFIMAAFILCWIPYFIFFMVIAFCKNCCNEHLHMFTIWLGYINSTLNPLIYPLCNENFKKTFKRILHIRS
T2 sequence (Q9H3N8 whole entry): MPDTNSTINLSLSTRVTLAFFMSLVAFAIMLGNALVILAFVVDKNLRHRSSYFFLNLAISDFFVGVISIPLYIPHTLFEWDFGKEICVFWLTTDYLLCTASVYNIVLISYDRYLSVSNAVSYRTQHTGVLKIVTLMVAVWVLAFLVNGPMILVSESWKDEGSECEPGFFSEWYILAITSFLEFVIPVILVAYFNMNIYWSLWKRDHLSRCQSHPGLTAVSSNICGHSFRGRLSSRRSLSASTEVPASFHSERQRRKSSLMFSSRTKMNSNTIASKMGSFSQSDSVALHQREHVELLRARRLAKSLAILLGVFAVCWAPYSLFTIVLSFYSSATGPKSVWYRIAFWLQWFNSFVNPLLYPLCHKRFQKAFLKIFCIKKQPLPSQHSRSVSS
T1 sequence (Q9H3N8 whole entry): as above
T4 sequence (Q9Y5N1 whole entry): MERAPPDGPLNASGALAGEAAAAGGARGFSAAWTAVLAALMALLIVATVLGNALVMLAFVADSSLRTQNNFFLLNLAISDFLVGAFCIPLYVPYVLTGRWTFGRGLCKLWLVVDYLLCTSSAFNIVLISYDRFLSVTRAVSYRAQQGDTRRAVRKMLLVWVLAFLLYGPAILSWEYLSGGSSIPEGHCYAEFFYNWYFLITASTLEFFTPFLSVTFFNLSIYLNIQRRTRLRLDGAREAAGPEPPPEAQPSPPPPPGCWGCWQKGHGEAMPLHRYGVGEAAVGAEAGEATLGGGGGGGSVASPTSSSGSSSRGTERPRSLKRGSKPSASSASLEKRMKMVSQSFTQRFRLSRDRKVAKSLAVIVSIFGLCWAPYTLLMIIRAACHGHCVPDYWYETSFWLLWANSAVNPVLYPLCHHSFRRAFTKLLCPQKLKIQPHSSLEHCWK

For O=S(=O)(c1ccc(Cl)cc1)N1CCC(CCc2c[nH]cn2)C1 (stereo not shown) [Formula 23], which Ki [1, 6] is on record?
Its Ki is 205 nM.

C/C(=C\C(=O)Nc1ccc(Cl)cc1)c1ccc(Cc2c[nH]cn2)cc1 [Formula 33] was tested. Which Ki [1, 6] did it give?
Its Ki is 870 nM.

CNCCc1c[nH]cn1 [N^α-methylhistamine] was tested. Which Ki [2] did it give?
Its Ki is 0.063 ± 0.002 µM.

Which Ki [1, 6] does the source give for CC(C)(C)CCC#C[C@@H]1C[C@H]1c1c[nH]cn1 [Formula 21] here?
The Ki was 90 nM.

For Clc1ccc(C(CCNCCCCc2c[nH]cn2)c2ccccn2)cc1 (stereo not shown) [Formula 30], which Ki [1, 6] is on record?
The Ki was 480 nM.

With O=C(CCN1CCC(Cc2c[nH]cn2)CC1)NCCc1ccc(Cl)cc1 [Formula 25] as the compound, how does the Ki [1, 6] read?
Its Ki is 300 nM.

With O=C(/C=C/c1ccc(Cc2c[nH]cn2)cc1)NCCc1ccc(Cl)cc1 [Formula 35] as the compound, how does the Ki [1, 6] read?
Its Ki is 1100 nM.

What about the “H1 Ki, value given in %” value [3] of the same compound?
Its value is 0%.

Which “Cells (neutrophils or total cells) counted in BAL of LPS-challenged rats compared with rats treated with a blank” value [4] does the source give for Nc1ncc(CN2CCC(F)(C(=O)N3CCC(n4c(-c5ccccn5)nc5cccnc54)CC3)CC2)cn1 [Formula 17] here?
The value was “Fewer cells”.

For c1nc(CC2CCN(CCCOc3ccc(CN4CCCCC4)cc3)CC2)c[nH]1 [Formula 24], which Ki [1, 6] is on record?
The Ki was 290 nM.

How did the Ki [1, 6] turn out when O=C(NCc1ccc(Cc2c[nH]cn2)cc1)Nc1cc(Cl)cc(Cl)c1 [Formula 26] was run?
The Ki was 320 nM.

And the “H1 Ki, value given in %” value [3]?
The value was 0%.

Which Ki [1, 6] does the source give for CN1CCC(N(C)Cc2ccc(OCCCN3CCC(Cc4c[nH]cn4)CC3)cc2)CC1 [Formula 27] here?
Its Ki is 325 nM.

How did the Ki [1, 6] turn out when c1ccc2c(c1)C1CC(CNCCCCc3c[nH]cn3)C2c2ccccc21 (stereo not shown) [Formula 29] was run?
The Ki was 440 nM.

For C[C@@H](N)Cc1c[nH]cn1 [(R)-α-methylhistamine], which Ki [2] is on record?
Its Ki is 0.14 ± 0.01 µM.

How did the Ki [2] turn out when NC(=NCc1ccc(Cl)cc1)SCCCc1cnc[nH]1 [Clobenpropit] was run?
Its Ki is 0.0072 ± 0.0005 µM.

Clc1ccc(C(=C2CCN(CCCCCc3c[nH]cn3)CC2)c2ccccn2)cc1 [Formula 31] was tested. Which Ki [1, 6] did it give?
The Ki was 770 nM.

Which Ki [2, 7] does the source give for CN/C(=N/CCSCc1nc[nH]c1C)NC#N [Cimetidine] here?
Its Ki is greater than 10 µM.

How did the “% Inhibition of neutrophilic cellular influx into BAL in response to LPS challenge” value [4] turn out when COc1ccc([C@]2(C#N)CC[C@@H](C(=O)O)CC2)cc1OC1CCCC1 [SB207499, c4-cyano-4-(3-cyclopentyloxy-4-methoxy-phenyl)-r-1-cyclohexanecarboxylic acid, reference compound] was run?
Its value is 68.7%.

What about the “% Inhibition of total cellular influx into BAL in response to LPS challenge” value [4] of the same compound?
The value was 61.2%.

And the “Cells (neutrophils or total cells) counted in BAL of LPS-challenged rats compared with rats treated with a blank” value [4]?
Its value is “Fewer cells”.

Which Ki [2, 7] does the source give for CN(C)CCC(c1ccc(Cl)cc1)c1ccccn1 (stereo not shown) [Chlorpheniramine] here?
Its Ki is greater than 10 µM.

Which Ki [1, 6] does the source give for O=C(c1cnc2ccccc2c1)N1CCC(Cc2c[nH]cn2)CC1 [Formula 19] here?
Its Ki is 38 nM.

And the “H1 Ki, value given in %” value [3]?
Its value is 0%.

And the “% Inhibition of neutrophilic cellular influx into BAL in response to LPS challenge” value [4]?
The value was 71.6%.

And the “% Inhibition of total cellular influx into BAL in response to LPS challenge” value [4]?
Its value is 64.5%.

CC(C)(C(=O)O)c1ccc(C(=O)CCCN2CCC(OC(c3ccccc3)c3ccccc3)CC2)cc1 [Formula 36] was tested. Which “H4 Ki column, value given in %” value ([1]; concentration not given) did it give?
Its value is 2%.

And the “H3 Ki column, value given in %” value [5]?
Its value is 1%.

And the Ki ([3]; membrane binding, [3H]-pyrilamine)?
Its Ki is 15 nM.

How did the Ki [1] turn out when NC(=NCc1ccc(Cl)cc1)SCCCc1cnc[nH]1 [Formula 18] was run?
The Ki was 34 nM.

With CC(C)(C)c1ccc(S(=O)(=O)NCCCCc2c[nH]cn2)cc1 [Formula 32] as the compound, how does the Ki [1, 6] read?
Its Ki is 850 nM.

And the “H1 Ki, value given in %” value [3]?
Its value is 32%.

How did the Ki ([2]; read-out: Ki ± SEM versus [3H]histamine binding to SP9144-transfected HEK293 cells, 18 nM [3H]-histamine, 70 μg membrane protein, Ki from IC50 by Cheng and Prusoff) turn out when CN(C)CCCSC(=N)N [Dimaprit] was run?
The Ki was 0.38 ± 0.07 µM.

Which Ki [2] does the source give for C[C@H](N)Cc1c[nH]cn1 [(S)-α-methylhistamine] here?
The Ki was 3.4 ± 0.3 µM.

Which results are given for O=C(NCCCCc1c[nH]cn1)C1(c2ccc(Cl)cc2)CCC1 [Formula 34]?
Ki [1, 6]: 1100 nM; H1 Ki, value given in % [3]: 48%

N=C(N)SCCc1cnc[nH]1 [Imetit] was tested. Which Ki [2] did it give?
Its Ki is 0.0031 ± 0.0007 µM.

Clc1ccc(C(=C2CCN(CCCCc3c[nH]cn3)CC2)c2ccccn2)cc1 [Formula 28] was tested. Which Ki [1, 6] did it give?
The Ki was 390 nM.

O=C(CCN1CCC(Cc2c[nH]cn2)CC1)Nc1cccc(Cl)c1 [Formula 22] was tested. Which Ki [1, 6] did it give?
The Ki was 92 nM.

How did the Ki [1, 6] turn out when O=C(c1ccccn1)N1CCC(Cc2c[nH]cn2)CC1 [Formula 20] was run?
Its Ki is 38 nM.
